One experiment has as its target Wee1 (Homo sapiens, UniProt P30291). The experiment in a line: selective binding assay for Wee1. The settings on record: in vitro potency.
The target in another experiment is T1, PKMYT1 (Homo sapiens, UniProt Q99640).
T1 sequence (Q99640 1-499): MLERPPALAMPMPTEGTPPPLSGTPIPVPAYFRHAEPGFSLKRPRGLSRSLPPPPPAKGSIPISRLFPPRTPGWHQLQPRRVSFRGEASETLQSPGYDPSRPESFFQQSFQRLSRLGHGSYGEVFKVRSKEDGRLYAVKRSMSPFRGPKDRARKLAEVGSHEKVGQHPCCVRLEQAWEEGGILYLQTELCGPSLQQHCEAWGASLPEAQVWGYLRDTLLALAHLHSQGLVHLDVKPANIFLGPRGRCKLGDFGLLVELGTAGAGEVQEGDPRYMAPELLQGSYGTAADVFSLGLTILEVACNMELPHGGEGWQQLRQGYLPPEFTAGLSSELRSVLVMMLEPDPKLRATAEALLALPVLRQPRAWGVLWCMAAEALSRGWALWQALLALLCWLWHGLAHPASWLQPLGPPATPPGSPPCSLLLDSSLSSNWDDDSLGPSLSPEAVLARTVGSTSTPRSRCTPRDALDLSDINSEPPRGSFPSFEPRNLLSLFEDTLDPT
As to the kind of experiment: selective binding assay for PKMYT1. The conditions noted are these: in vitro potency.

Chain of Wee1 (P30291 whole entry): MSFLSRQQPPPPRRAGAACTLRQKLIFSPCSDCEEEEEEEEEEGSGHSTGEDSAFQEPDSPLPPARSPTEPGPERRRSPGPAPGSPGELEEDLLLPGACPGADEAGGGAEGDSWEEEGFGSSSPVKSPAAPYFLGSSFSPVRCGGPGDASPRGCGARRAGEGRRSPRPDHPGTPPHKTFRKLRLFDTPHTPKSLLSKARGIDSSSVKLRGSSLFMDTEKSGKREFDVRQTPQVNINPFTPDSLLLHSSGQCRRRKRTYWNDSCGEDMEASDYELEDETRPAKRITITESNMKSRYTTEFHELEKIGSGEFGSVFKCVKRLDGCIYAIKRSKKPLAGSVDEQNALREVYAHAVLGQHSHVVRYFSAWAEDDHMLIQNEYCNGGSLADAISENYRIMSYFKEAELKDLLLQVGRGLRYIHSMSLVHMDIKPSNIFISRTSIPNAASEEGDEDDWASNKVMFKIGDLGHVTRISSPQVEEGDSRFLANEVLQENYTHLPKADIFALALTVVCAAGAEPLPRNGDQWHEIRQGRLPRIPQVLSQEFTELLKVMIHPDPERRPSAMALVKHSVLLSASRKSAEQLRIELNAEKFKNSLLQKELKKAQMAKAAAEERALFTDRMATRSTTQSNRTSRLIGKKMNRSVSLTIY

As to `Cn1c(=O)c(-c2c(Cl)cccc2Cl)cc2cnc(Nc3ccc(N4CCOCC4)cc3)nc21` [PD173952, 6-(2,6-dichlorophenyl)-8-methyl-2-((4-morpholinophenyl)amino)pyrido[2,3-d]pyrimidin-7(8H)-one], the IC50 at Wee1 stood at 5.3 nM; at PKMYT1, 46 nM.

Consider `CCN(CC)CCOc1ccc(Nc2ncc3cc(-c4c(Cl)cccc4Cl)c(=O)n(C)c3n2)cc1` [PD0166285, 6-(2,6-dichlorophenyl)-2-((4-(2-(diethylamino)ethoxy)phenyl)amino)-8-methylpyrido[2,3-d]pyrimidin-7(8H)-one], for which, on PKMYT1, the IC50 was 8.2 nM.

For the origin of these results see patent US20230149415A1, “METHODS AND COMPOSITIONS FOR TREATING CANCER” (Engine Biosciences Pte. Ltd., priority 2020, published 2023).
